Test results as given in patent US20090221642A1, “MUSCARINIC RECEPTOR AGONISTS, COMPOSITIONS, METHODS OF TREATMENT THEREOF, AND PROCESSES FOR PREPARATION THEREOF-176” (AstraZeneca AB, priority 2008, published 2009).

target: T1, hM1 (human Muscarinic receptor subtype 1) (Homo sapiens, UniProt P11229); assay: Human M1 calcium mobilization FLIPR assay; type: cell-based; details: hM1 expressed in CHO cells, intracellular Ca2+ release, read-out: hM1 EC50
T1 construct: expressed in transfected cells; host or cells: CHO cells (Chinese hamster ovary cells, ATCC)
T1 sequence (P11229 1-460): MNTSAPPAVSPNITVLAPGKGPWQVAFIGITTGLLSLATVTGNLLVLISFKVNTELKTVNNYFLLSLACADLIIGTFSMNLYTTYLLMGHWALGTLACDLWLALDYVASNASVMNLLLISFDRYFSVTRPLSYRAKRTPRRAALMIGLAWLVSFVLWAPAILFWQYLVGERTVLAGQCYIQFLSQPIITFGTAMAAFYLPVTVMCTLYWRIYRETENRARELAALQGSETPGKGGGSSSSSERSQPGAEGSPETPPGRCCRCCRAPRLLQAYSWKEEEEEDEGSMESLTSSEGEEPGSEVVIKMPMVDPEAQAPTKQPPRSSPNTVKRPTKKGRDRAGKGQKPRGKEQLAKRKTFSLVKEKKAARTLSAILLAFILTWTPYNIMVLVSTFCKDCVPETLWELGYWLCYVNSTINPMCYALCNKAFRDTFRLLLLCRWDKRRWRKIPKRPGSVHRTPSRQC
Procedure: Human M1, rat M1, human M3 and human M5 Calcium Mobilization FLIPR™ Assay
The compound activity in the present invention (EC50 or IC50) is measured using a 384 plate-based imaging assay that monitors drug induced intracellular Ca^2+ release in whole cells. Activation of hM1 (human Muscarinic receptor subtype 1, gene bank access NM_000738), rM1 (rat Muscarinic receptor subtype 1, gene bank access NM_080773), hM3 (human Muscarinic receptor subtype 3, gene bank access NM_000740NM_000740) and hM5 (human Muscarinic receptor subtype 5, gene bank access NM_0121258), receptors expressed in CHO cells (Chinese hamster ovary cells, ATCC) is quantified in a Molecular Devices FLIPR II™ instrument as an increase in fluorescent signal. Inhibition of hM3 and hM5 by compounds is determined by the decrease in fluorescent signal in response to 2 nM acetylcholine activation.
Prior to experiment, the cell culture medium is removed from the plates by inversion. […] Plates are incubated at 37° C. for 60 minutes prior to start the experiment. The incubation is terminated by washing the cells four times in assay buffer, leaving a residual 25 μl buffer per well. Cell plates are then transferred to the FLIPR, ready for compound additions.
The day of experiment, acetylcholine and compounds are diluted in assay buffer in three-fold concentration range (10 points serial dilution) for addition by FLIPR instrument. For all calcium assays, a baseline reading is taken for 10 seconds followed by the addition of 12.5 μl of compounds, resulting in a total well volume of 37.5 μl. Data is collected every second for 60 pictures and then every 6 seconds for 20 pictures prior to the addition of agonist. For hM3 and hM5, before agonist addition, a second baseline reading is taken for 10 seconds followed by the addition of 12.5 μl of agonist or buffer, producing a final volume of 50 μl. After agonist stimulation, the FLIPR continues to collect data every second for 60 pictures and then every 6 seconds for 20 pictures. The fluorescence emission is read using filter 1 (emission 510-570 nm) by the FLIPR on board CCD camera.
Calcium mobilization output data are calculated as the maximal relative fluorescence unit (RFU) minus the minimal value for both compound and agonist reading frame (except for hM1 and rM1 using only the maximal RFU). Data are analyzed using sigmoidal fits of a non-linear curve-fitting program (XLfit version 4.2.2 Excel add-in version 4.2.2 build 18 math 1Q version 2.1.2 build 18). All pEC50 and plC50 values are reported as arithmetic means ±standard error of mean of ‘n’ independent experiments.

In order of rising EC50:
1. CCOC(=O)N1CCC(C)(N2CCC(N3C(=O)C4(CC4)c4ccc(F)cc43)CC2)C1 (stereo not drawn) [Example 87, ethyl 3-(4-(6′-fluoro-2′-oxospiro[cyclopropane-1,3′-indoline]-1′-yl)piperidin-1-yl)-3-methylpyrrolidine-1-carboxylate]  125 nM
2. COC(=O)N1CCC(C)(N2CCC(N3C(=O)Cc4c3cc(C)cc4C(C)(C)C)CC2)C1 (stereo not drawn) [Example 86, methyl 3-(4-(4-tert-butyl-6-methyl-2-oxoindolin-1-yl)piperidin-1-yl)-3-methylpyrrolidine-1-carboxylate]  1420 nM
3. CCOC(=O)N1CCC(C)(N2CCC(N3C(=O)Cc4c3cc(F)cc4C(C)(C)C)CC2)C1 (stereo not drawn) [Example 85, ethyl 3-(4-(4-tert-butyl-6-fluoro-2-oxoindolin-1-yl)piperidin-1-yl)-3-methylpyrrolidine-1-carboxylate]  1470 nM
